Laboratory results as given in patent US20100305120A1, “COMPOUNDS FOR TREATING MUSCULAR DYSTROPHY” (BIOMARIN IGA LIMITED, priority 2008, published 2010).

These compounds were tested on Utrophin A promoter linked to a luciferase reporter gene (assay: Luciferase reporter assay (murine H2K cells), H2K/mdx/Utro A reporter cell line). Conditions: 48 h; test compound concentration 0.1 μM; mdx mouse H2K Utrophin A reporter cells; read-out: Activity (luciferase level relative to control).
Type: cell-based
In short: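 Immortalized mdx mouse H2K myoblasts stably carrying ~5 kb utrophin A promoter–luciferase construct, kept at 33 °C, 10% CO2. Compound added 24 h after plating, typically at 10 μM final, for 48 h; luciferase measured by cell lysis and luminescence.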
`CS(=O)(=O)c1ccc(Cn2nc(C(=O)Nc3ccc4c(c3)OCO4)c3c2CCCC3)cc1` [Compound 149, N-(benzo[d][1,3]dioxol-5-yl)-1-(4-(methylsulfonyl)benzyl)-4,5,6,7-tetrahydro-1H-indazole-3-carboxamide] gave an activity at 0.1 µM of less than 200%.

Same assay, conditions: 48 h; test compound concentration 1 μM; mdx mouse H2K Utrophin A reporter cells; read-out: Activity (luciferase level relative to control)
Work on `CS(=O)(=O)c1ccc(Cn2nc(C(=O)Nc3ccc4c(c3)OCO4)c3c2CCC3)cc1` [Compound 150, N-(benzo[d][1,3]dioxol-5-yl)-1-(4-(methylsulfonyl)benzyl)-1,4,5,6-tetrahydrocyclopenta[c]pyrazole-3-carboxamide] yielded an activity at 1 µM of less than 200%.

Same assay, conditions: 48 h; test compound concentration 10 μM; mdx mouse H2K Utrophin A reporter cells; read-out: Activity (luciferase level relative to control)
In the case of `O=C(Nc1ccc2c(c1)OCO2)c1nn(Cc2ccc(C(=O)N3CCCC3)cc2)c2ccccc12` [Compound 142, N-(benzo[d][1,3]dioxol-5-yl)-1-(4-(pyrrolidine-1-carbonyl)benzyl)-1H-indazole-3-carboxamide], the activity at 10 µM is reported as 201 to 300%. Compound `O=C(Nc1ccc2c(c1)OCCO2)c1nn(Cc2ccc(C(=O)N3CCOCC3)cc2)c2ccccc12` [Compound 143, N-(2,3-dihydrobenzo[b][1,4]dioxin-6-yl)-1-(4-(morpholine-4-carbonyl)benzyl)-1H-indazole-3-carboxamide] has an activity at 10 µM of 301 to 400%. With `COc1ccc(NC(=O)c2nn(Cc3ccc(C(=O)N4CCOCC4)cc3)c3ccccc23)cc1` [Compound 144, N-(4-methoxyphenyl)-1-(4-(morpholine-4-carbonyl)benzyl)-1H-indazole-3-carboxamide] the activity at 10 µM was 301 to 400%. `O=C(Nc1ccc2c(c1)OCO2)c1nn(Cc2ccon2)c2ccccc12` [Compound 145, N-(benzo[d][1,3]dioxol-5-yl)-1-(isoxazol-3-ylmethyl)-1H-indazole-3-carboxamide] was tested, and the activity at 10 µM was less than 200%. `CS(=O)(=O)c1ccc(Cn2cc(C(=O)Nc3ccc4c(c3)OCO4)c3ccccc32)cc1` [Compound 146, N-(benzo[d][1,3]dioxol-5-yl)-1-(4-(methylsulfonyl)benzyl)-1H-indole-3-carboxamide] showed an activity at 10 µM of less than 200%. Work on `CCn1ccc(C(=O)Nc2ccc(Cl)cc2Cl)n1` [Compound 147, N-(2,4-dichlorophenyl)-1-ethyl-1H-pyrazole-3-carboxamide] yielded an activity at 10 µM of less than 200%. `CCN(CC)C(=O)c1ccc(Cn2nc(C(=O)Nc3ccc4c(c3)OCO4)c3ccccc32)cc1` [Compound 151, N-(benzo[d][1,3]dioxol-5-yl)-1-(4-(diethylcarbamoyl)benzyl)-1H-indazole-3-carboxamide] showed an activity at 10 µM of less than 200%. Compound `CC(C)S(=O)(=O)c1ccc(Cn2nc(C(=O)Nc3ccc4c(c3)OCO4)c3ccccc32)cc1` [Compound 152, N-(benzo[d][1,3]dioxol-5-yl)-1-(4-(isopropylsulfonyl)benzyl)-1H-indazole-3-carboxamide] has an activity at 10 µM of less than 200%. With `CCc1ccc(Cn2nc(C(=O)Nc3ccc4c(c3)OCO4)c3ccccc32)nc1` [Compound 153, N-(benzo[d][1,3]dioxol-5-yl)-1-((5-ethylpyridin-2-yl)methyl)-1H-indazole-3-carboxamide] the activity at 10 µM was less than 200%. With `CC(C)c1nc(Cn2nc(C(=O)Nc3ccc4c(c3)OCO4)c3ccccc32)no1` [Compound 154, N-(benzo[d][1,3]dioxol-5-yl)-1-((5-isopropyl-1,2,4-oxadiazol-3-yl)methyl)-1H-indazole-3-carboxamide] the activity at 10 µM was less than 200%. In the case of `CCc1nnc(Cn2nc(C(=O)Nc3ccc4c(c3)OCO4)c3ccccc32)o1` [Compound 155], the activity at 10 µM is reported as less than 200%. `CCS(=O)(=O)c1ccc(Cn2nc(C(=O)Nc3ccc4c(c3)OCO4)c3ccccc32)cc1` [Compound 156, N-(benzo[d][1,3]dioxol-5-yl)-1-(4-(ethylsulphonyl)benzyl)-1H-indazole-3-carboxamide] was tested, and the activity at 10 µM was 201 to 300%. With `CS(=O)(=O)c1ccc(Cn2nc(C(=O)O)c3ccccc32)cc1` [Compound 157, 1-(4-(methylsulphonyl)benzyl)-1H-indazole-3-carboxylic acid] the activity at 10 µM was less than 200%. For `CCc1ccc(Cn2nc(C(=O)Nc3ccc4c(c3)OCCO4)c3ccccc32)cc1` [Compound 158, N-(2,3-dihydrobenzo[b][1,4]dioxin-6-yl)-1-(4-ethylbenzyl)-1H-indazole-3-carboxamide], the activity at 10 µM was 201 to 300%. `CCc1ccc(Cn2nc(C(=O)Nc3ccc4c(c3)OC(F)(F)C(F)(F)O4)c3ccccc32)cc1` [Compound 159, 1-(4-ethylbenzyl)-N-(2,2,3,3-tetrafluoro-2,3-dihydrobenzo[b][1,4]dioxin-6-yl)-1H-indazole-3-carboxamide] was tested, and the activity at 10 µM was less than 200%. `O=C(Nc1ccc2c(c1)OCCO2)c1nn(Cc2ccc(C(=O)N3CCOCC3)cc2)c2ccc(F)cc12` [Compound 160, N-(2,3-dihydrobenzo[b][1,4]dioxin-6-yl)-5-fluoro-1-(4-(morpholine-4-carbonyl)benzyl)-1H-indazole-3-carboxamide] showed an activity at 10 µM of less than 200%. Work on `O=C(Nc1ccc2c(c1)OC(F)(F)C(F)(F)O2)c1nn(Cc2ccc(C(=O)N3CCOCC3)cc2)c2ccccc12` [Compound 161, 1-(4-(morpholine-4-carbonyl)benzyl)-N-(2,2,3,3-tetrafluoro-2,3-dihydrobenzo[b][1,4]dioxin-6-yl)-1H-indazole-3-carboxamide] yielded an activity at 10 µM of 201 to 300%. `O=C(Nc1ccc2c(c1)OCCO2)c1nn(Cc2ccc(C(=O)N3CCOCC3)cc2)c2cc(F)ccc12` [Compound 162, N-(2,3-dihydrobenzo[b][1,4]dioxin-6-yl)-6-fluoro-1-(4-(morpholine-4-carbonyl)benzyl)-1H-indazole-3-carboxamide] was tested, and the activity at 10 µM was 201 to 300%. `O=C(Nc1ccc2c(c1)OCCO2)c1nn(Cc2ccc(C(=O)N3CCOCC3)cc2)c2cc(C(F)(F)F)ccc12` [Compound 163, N-(2,3-dihydrobenzo[b][1,4]dioxin-6-yl)-1-(4-(morpholine-4-carbonyl)benzyl)-6-(trifluoromethyl)-1H-indazole-3-carboxamide] showed an activity at 10 µM of less than 200%.

Same assay, conditions: 48 h; test compound concentration 30 μM; mdx mouse H2K Utrophin A reporter cells; read-out: Activity (luciferase level relative to control)
In the case of `CS(=O)(=O)c1ccc(Cn2ccc(C(=O)Nc3ccc4c(c3)OCO4)n2)cc1` [Compound 148, N-(benzo[d][1,3]dioxol-5-yl)-1-(4-(methylsulfonyl)benzyl)-1H-pyrazole-3-carboxamide], the activity at 30 µM is reported as less than 200%.
